# Source: US20160151458A1, “Use Of Unacylated Ghrelin, Fragments And Analogs Thereof As Antioxidant” (ALIZE PHARMA SAS, priority 2013, published 2016)
# Ends that are not written are not given here. * marks the point of attachment. Octanoyl = CCCCCCCC(=O)*
# Legend:
# [1] = test system: glucose, insulin and lipid metabolisms; settings: cited from earlier work; for retention of the activity of UAG full length: U.S. Pat. Nos. 8,222,217 and 8,318,664; for smallest fragment retaining UAG activity: earlier patents
# [2] = test system: C2C12 mouse muscular cell line; test: ROS production (DCF-DA) in C2C12 cells under oxidative stress; format: cell-based; settings: 1 μmol/L; stress by hypoxia (1% O2), AGEs, hyperglycemia (25 mM) or H2O2; FIG. 8
# Protocol: Kinetic analysis of ROS production was evaluated by using DCF-DA (5-(and-6)-carboxy-2′,7′-dichlorofluorescein diacetate, 0.5 μmol/L final concentration) (Molecular Probe, Invitrogen) assay. C2C12 cells were cultured with 400 μg/ml Advanced Glycated End-product (AGE) or 25 mM glucose (high glucose HG) for 48 h, H2O2 (100 μM) for 2 h. In parallel experiments C2C12 cells were subjected to hypoxia (DMEM+2% FCS in a 5% CO2-95% N2 humidified atmosphere, yielding to 1% O2 concentrations for 24 h). UAG (1 μmol/L) AZP 531 (1 μmol/L) or AZP-502 (1 μmol/L) was added where indicated.
# primary SCs = test: In-vitro ischemia of primary SCs from normo-perfused muscles; format: cell-based, C57BL/6J mice; settings: SB202190 1 μmol/L added
# Protocol: (§1) SCs were isolated from gastrocnemius muscles of C57BL/6J wild type mice subjected to ischemia or C57BL/6J mice lacking the GHSR1a and ghrelin genes (10 mice, kind gift of Professor M. Tschöp)^39. To obtain SCs, muscle samples were subjected to enzymatic digestion as described^45. In selected experiments, SCs were recovered from normo-perfused muscles and subjected to in-vitro ischemia in presence of saline, AG (1 μmol/L) or UAG (1 μmol/L). In-vitro ischemia was induced by incubating cells in DMEM+2% FCS at 5% CO2/95% N2 humidified atmosphere, yielding 1% O2 concentrations for 24 h^18. The in-vitro ischemia was also performed in the presence of SB202190 (1 μmol/L).
# (§2) SC cell-cycle progression was evaluated by evaluating the percentage of PCNA-positive cells or by FACS analysis as previously described^46. The percentage of cells in each cell cycle phase was determined by ModFit LT software (Verity Software House. Inc, topsham, ME, USA). Celss proliferation was also assayed by evaluating the percentage of PCNA-positive cells by FACS analysis.
# (§3) Cells were lysed and protein detection was obtained as previously described^47. Cells were lysed (50 mmol/L Tris HCl [pH 8.3], 1% Triton X-100, 10 mmol/L PMSF, 100 U/ml aprotinin, 10 μmol/L leupeptin) and protein concentrations were obtained as previously described^47. […] Densitometric analysis was used to calculate the differences in the fold induction of protein levels and normalized to tubulin, a actin or p38MAPK content. Values are reported as relative amount
# (§4) Intracellular ROS production was evaluated using DCF-DA (5-(and-6)-carboxy-2′,7′-dichlorofluorescein diacetate, […] final concentration) (Molecular Probe, Invitrogen) assay as previously described^23. The formation of TBARS was determined in muscles using the OXI-TEK kit (ZeptoMetrix Corp.) and a luminescence spectrometer (Bio-Rad Laboratories, Hercules, Calif.) with excitation set at 530 nm, emission at 550 nm to measure in-vivo oxidative stress levels^33.
# Total RNA was isolated using TRIzol reagent (Invitrogen) from SCs recovered from muscles of treated animals or from SCs subjected to in-vitro ischemia. miR-221/222 expression was evaluated by qRT-PCR as previously described^48. Loss-of-function experiments were performed in SCs transfected for 48 h with anti-miRNA negative control, anti-miR-221/222 antagonists (Applied Biosystem, Foxter Cyto CA, USA), according to the manufacturer's instructions^48.
# SCs from double KO mice = test: In-vitro ischemia of SCs from double KO mice lacking the GHSR1a and ghrelin genes; format: cell-based, C57BL/6J mice lacking the GHSR1a and ghrelin genes
# Protocol: as §1, §2, §3, §4
# [3] = test system: unilateral hind limb ischemia in C57BL/6J mice (ischemic gastrocnemius muscle); test: Murine hind-limb ischemia model; format: in vivo
# Protocol: Male C57BL/6J mice (Charles River Lab., Wilmington, Mass., USA) were anesthetized and unilateral hind limb ischemia was induced as described^42. The normo-perfused contralateral limb of each mouse was used as an internal control. After hind-limb ischemia, animals (18 mice per group) were treated by intra-peritoneal injection daily from 0 to day 21 with either saline, AG (100 μg/kg) or UAG (100 μg/kg). In selected experiments, mice received intramuscular injections of pre-miR oligonucleotides (5 mice/group). To induce toxic damage, 100 μl of 1% barium chloride (BaCl2, Sigma Aldrich) was injected unilaterally into the hind limb (9 mice). Mice were treated according to European Guidelines and policies as approved by the University of Turin Ethical Committee.
# Semiquantitative estimation (by repeated measures analyzed with ANOVA and Newman-Keuls Multiple Comparison test) of foot damage was performed serially using the following classification: 3=dragging of foot (foot necrosis), 2=no dragging but no plantar flexion (foot damage), 1=plantar flexion but no toe flexion (toe damage), and 0=flexing the toes to resist gentle traction on the tail (no damage)^43.
# Gastrocnemius muscle sections from ischemic or normo-perfused limbs were stained with hematoxylin and eosin for histological analysis. The proportion of fibers with central nuclei (regenerating fibers) was measured by MetaMorph software (Life Sciences Research Imaging Systems) in the injured area and the cross-sectional areas of the fibers in the injured and non-injured areas. For IF analysis, muscle sections were processed as described previously^44. The number of cells expressing the indicated markers or CD31 positive vessels was evaluated as previously described^34.
# as §4
compound,measurement,setting,value
SPEHQRVQ [UAG (6-13)],retention of the activity of UAG full length,[1],"retain the activity of UAG full length on glucose, insulin and lipid metabolisms"
same,protection against oxidative stress (ROS production),[2],have a protective effect on C2C12 cells against oxidative stress
"Oc1ccc(-c2nc(-c3ccncc3)c(-c3ccc(F)cc3)[nH]2)cc1 [SB202190, reference compound]",cell-cycle entry of SCs exposed to UAG,primary SCs; FIG. 5E,blocked cell-cycle entry
same,MyoD and myogenin expression in SCs exposed to UAG,primary SCs; FIG. 5F,prevented MyoD and myogenin expression
Glu-His-Gln-Arg-Val (EHQRV; listed as Homo sapiens) [UAG (8-12)],retention of the activity of UAG full length,[1],"retain the activity of UAG full length on glucose, insulin and lipid metabolisms"
"AG: 28 amino acid peptide with an n-octanoyl modification on the Ser3 residue; endogenous ligand of GHSR-1a (GSS(Octanoyl)FLSPEHQRVQQRKESKKPPAKLQPR; UniProt Q9UBU3 24-51, looked up) [reference compound]",SC cell-cycle progression,SCs from double KO mice; FIG. 5G,only UAG
same,"p-p38/MAPK, Pax-7, MyoD, Myf5 and myogenin expression","SCs from double KO mice; FIGS. 5H, 5I",only UAG
same,protection against ischemia-induced damage (overall in vivo effect),[3]; 100 μg/kg i.p. daily,failure to detect in vivo effects
same,foot damage (functional score),"[3]; 100 μg/kg i.p. daily from day 0, FIG. 1A",significantly higher
same,"capillary density, ischemic vs contralateral control muscles of the same animals","[3]; 100 μg/kg i.p. daily, FIG. 1B",significantly lower capillary density than in contralateral control muscles
same,concentration of TBARS in ischemic muscles,[3]; FIG. 3A,Significant increases in the concentration of TBARS
His-Gln-Arg (HQR; listed as Homo sapiens) [UAG (9-11)],retention of the activity of UAG full length,[1],"retain the activity of UAG full length on glucose, insulin and lipid metabolisms"
Glu-His-Gln-Arg (EHQR; listed as Homo sapiens) [UAG (8-11)],retention of the activity of UAG full length,[1],"retain the activity of UAG full length on glucose, insulin and lipid metabolisms"
same,smallest fragment retaining UAG activity,[1],smallest UAG fragment to retain UAG activities
EHQRVQ [UAG (8-13)],retention of the activity of UAG full length,[1],"retain the activity of UAG full length on glucose, insulin and lipid metabolisms"
His-Gln-Arg-Val (HQRV; listed as Homo sapiens) [UAG (9-12)],retention of the activity of UAG full length,[1],"retain the activity of UAG full length on glucose, insulin and lipid metabolisms"
same,smallest fragment retaining UAG activity,[1],smallest UAG fragment to retain the biological activity of UAG
"Ser-Pro-Glu-His-Gln-Arg-Val-Gln (cycl) (SPEHQRVQ; also: cyclic, closure not given here; listed as Homo sapiens) [UAG(6-13)cyclic]",protection against oxidative stress (ROS production),[2],have a protective effect on C2C12 cells against oxidative stress
